Counter-ions that a name gives are not always drawn.
Structure (SMILES)	melting point
O=C1N(c2cc(C(F)(F)F)cc(C(F)(F)F)c2)C(=O)C2(Cc3ccc(Br)cc3)CCCN12 (stereo not shown)	138 °C
CCN(CC)CCN1CCN2C(=O)N(c3cc(Cl)cc(Cl)c3)C(=O)C2(Cc2ccc(Br)cc2)C1 (stereo not shown) (as salt: HCl) [Example 32, 4-[2-(Diethylamino)ethyl]-6-(4-bromobenzyl)-8-(3,5-dichlorophenyl)-1,4,8-triazabicyclo[4.3.0]nonane-7,9-dione]	223 °C
CN(C)CC(=O)N1CCN2C(=O)N(c3cc(Cl)nc(Cl)c3)C(=O)C2(Cc2ccc(C#N)cc2)C1 (stereo not shown) (as salt: HCl) [Example 166, 6-(4-Cyanobenzyl)-4-dimethylaminoacetyl-8-(2,6-dichloro-4-pyridyl)-1,4,8-triazabicyclo[4.3.0]nonane-7,9-dione]	260.8 °C (dec.)
CC(C)(C)OC(=O)N1CCN2C(=O)N(c3cc(Cl)cc(Cl)c3)C(=O)C2(Cc2ccc(Br)cc2)C1 (stereo not shown) (as salt: Na) [Example 26, 4-(tert-Butoxycarbonyl)-6-(4-bromobenzyl)-8-(3,5-dichlorophenyl)-1,4,8-triazabicyclo[4.3.0]nonane-7,9-dione]	79.5 °C
O=C1N(c2cc(Cl)nc(Cl)c2)C(=O)C2(Cc3ccc(OC(F)(F)F)cc3)C[C@H](n3cccc3)CN12 (stereo in doubt) [Example 251, (5R, 7S)-5-[4-(Trifluoromethoxy)benzyl]-3-(2,6-dichloro-4-pyridyl)-7-(1-pyrrolyl)-1,3-diazabicyclo[3.3.0]octane-2,4-dione]	129.5 °C
O=C1N(c2cc(Cl)cc(Cl)c2)C(=O)C2(Cc3ccc(OC(F)(F)F)cc3)C[C@@H](O)CN12 (stereo in doubt) [Example 268, (5R, 7R)-5-[4-(Trifluoromethoxy)benzyl]-3-(3,5-dichlorophenyl)-7-hydroxy-1,3-diazabicyclo[3.3.0]octane-2,4-dione]	50.4 °C
O=C1N(c2cc(Cl)cc(Cl)c2)C(=O)C2(Cc3ccc(Br)cc3)CCCN12 (stereo not shown) [Example 1, 5-(4-Bromobenzyl)-3-(3,5-dichlorophenyl)-1,3-diazabicyclo[3.3.0]octane-2,4-dione]	69.4 °C
O=C1N(c2cc(Cl)cc(Cl)c2)C(=O)[C@]2(Cc3ccc(Br)cc3)C[C@@H](O)CN12 [Example 2, (5S, 7R)-5-(4-Bromobenzyl)-3-(3,5-dichlorophenyl)-7-hydroxy-1,3-diazabicyclo[3.3.0]octane-2,4-dione]	136.1 °C
[N-]=[N+]=N[C@@H]1CN2C(=O)N(c3cc(Cl)cc(Cl)c3)C(=O)[C@]2(Cc2ccc(Br)cc2)C1 [Example 3, (5S,7S)-5-(4-Bromobenzyl)-3-(3,5-dichlorophenyl)-7-azido-1,3-diazabicyclo[3.3.0]octane-2,4-dione]	58.9 °C
CC(=O)O[C@@H]1CN2C(=O)N(c3cc(Cl)cc(Cl)c3)C(=O)[C@]2(Cc2ccc(Br)cc2)C1 [Example 4, (5S,7S)-5-(4-Bromobenzyl)-3-(3,5-dichlorophenyl)-7-acetoxy-1,3-diazabicyclo[3.3.0]octane-2,4-dione]	149.8 °C
O=C1N(c2cc(Cl)cc(Cl)c2)C(=O)[C@]2(Cc3ccc(Br)cc3)C[C@H](O)CN12 [Example 5, (5S,7S)-5-(4-Bromobenzyl)-3-(3,5-dichlorophenyl)-7-hydroxy-1,3-diazabicyclo[3.3.0]octane-2,4-dione]	88.3 °C
O=C1N(c2cc(Cl)cc(Cl)c2)C(=O)C2(Cc3ccc(Br)cc3)CCCCN12 (stereo not shown) [Example 6, 6-(4-Bromobenzyl)-8-(3,5-dichlorophenyl)-1,8-diazabicyclo[4.3.0]nonane-7,9-dione]	128.8 °C
O=C1N(c2cc(Cl)cc(Cl)c2)C(=O)C2(Cc3ccc(-c4cccnc4)cc3)CCCCN12 (stereo not shown) [Example 7, 6-[4-(3-Pyridyl)benzyl]-8-(3,5-dichlorophenyl)-1,8-diazabicyclo[4.3.0]nonane-7,9-dione]	276.5 °C
O=C1N(c2cc(Cl)cc(Cl)c2)C(=O)C2(Cc3ccc(Br)cc3)CNCCN12 (stereo not shown) [Example 27, 6-(4-Bromobenzyl)-8-(3,5-dichlorophenyl)-1,4,8-triazabicyclo[4.3.0]nonane-7,9-dione]	92.5 °C
CC(=O)N1CCN2C(=O)N(c3cc(Cl)cc(Cl)c3)C(=O)C2(Cc2ccc(Br)cc2)C1 (stereo not shown) [Example 28, 4-Acetyl-6-(4-bromobenzyl)-8-(3,5-dichloro-phenyl)-1,4,8-triazabicyclo[4.3.0]nonane-7,9-dione]	89.6 °C
CN1CCN2C(=O)N(c3cc(Cl)cc(Cl)c3)C(=O)C2(Cc2ccc(Br)cc2)C1 (stereo not shown) [Example 29, 4-Methyl-6-(4-bromobenzyl)-8-(3,5-dichloro-phenyl)-1,4,8-triazabicyclo[4.3.0]nonane-7,9-dione]	221 °C
CC(C)(C)OC(=O)CN1CCN2C(=O)N(c3cc(Cl)cc(Cl)c3)C(=O)C2(Cc2ccc(Br)cc2)C1 (stereo not shown) [Example 30, 4-(tert-Butoxycarbonylmethyl)-6-(4-bromobenzyl)-8-(3,5-dichlorophenyl)-1,4,8-triazabicyclo[4.3.0]nonane-7,9-dione]	74.7 °C
CN(C)CC(=O)N1CCN2C(=O)N(c3cc(Cl)cc(Cl)c3)C(=O)C2(Cc2ccc(Br)cc2)C1 (stereo not shown) [Example 31, 4-[(Dimethylamino)acetyl]-6-(4-bromobenzyl)-8-(3,5-dichlorophenyl)-1,4,8-triazabicyclo[4.3.0]nonane-7,9-dione]	73.5 °C
CS(=O)(=O)N1CCN2C(=O)N(c3cc(Cl)cc(Cl)c3)C(=O)C2(Cc2ccc(Br)cc2)C1 (stereo not shown) [Example 33, 4-Methanesulfonyl-6-(4-bromobenzyl)-8-(3,5-dichlorophenyl)-1,4,8-triazabicyclo[4.3.0]nonane-7,9-dione]	229 °C
O=C(O)CN1CCN2C(=O)N(c3cc(Cl)cc(Cl)c3)C(=O)C2(Cc2ccc(Br)cc2)C1 (stereo not shown) [Example 34, 4-Carboxymethyl-6-(4-bromobenzyl)-8-(3,5-dichlorophenyl)-1,4,8-triazabicyclo[4.3.0]nonane-7,9-dione]	236.5 °C
O=C1CN2C(=O)N(c3cc(Cl)cc(Cl)c3)C(=O)C2(Cc2ccc(Br)cc2)C1 (stereo not shown) [Example 35, 5-(4-Bromobenzyl)-3-(3,5-dichlorophenyl)-1,3-diazabicyclo[3.3.0]octane-2,4,7-trione]	85.4 °C
COC(=O)C=C1CN2C(=O)N(c3cc(Cl)cc(Cl)c3)C(=O)C2(Cc2ccc(Br)cc2)C1 (stereo not shown) [Example 36, 5-(4-Bromobenzyl)-3-(3,5-dichlorophenyl)-7-methoxycarbonylmethylene-1,3-diazabicyclo[3.3.0]octane-2,4-dione]	74.9 °C
O=C(O)CC1=CC2(Cc3ccc(Br)cc3)C(=O)N(c3cc(Cl)cc(Cl)c3)C(=O)N2C1 (stereo not shown) [Example 37, 5-(4-Bromobenzyl)-3-(3,5-dichlorophenyl)-7-carboxymethyl-1,3-diazabicyclo[3.3.0]oct-6-ene-2,4-dione]	101.5 °C
N[C@@H]1CN2C(=O)N(c3cc(Cl)cc(Cl)c3)C(=O)[C@@]2(Cc2ccc(Br)cc2)C1 [Example 47, (5R,7S)-5-(4-Bromobenzyl)-3-(3,5-dichlorophenyl)-7-amino-1,3-diazabicyclo[3.3.0]octane-2,4-dione]	64.4 °C
CC(=O)N[C@@H]1CN2C(=O)N(c3cc(Cl)cc(Cl)c3)C(=O)[C@@]2(Cc2ccc(Br)cc2)C1 [Example 48, (5R,7S)-5-(4-Bromobenzyl)-3-(3,5-dichlorophenyl)-7-acetamido-1,3-diazabicyclo[3.3.0]octane-2,4-dione]	140.7 °C
